Numbers after ± are expanded uncertainties.
Tests used:
[1] = refractive index (Na D-line) (dimensionless); conditions: 298.15 K; 101.33 kPa; Liquid; Standard Abbe refractometry
[2] = Liquid, Vibrating tube method

CNC=O [N-methylformamide]
Conditions | refractive index
[1] | 1.43063 ± 0.00037

[2]
Conditions | mass density [kg/m3]
293.15 K, 200 kPa | 1004 ± 1
293.15 K, 500 kPa | 1004 ± 1
293.15 K, 1000 kPa | 1004 ± 1
293.15 K, 2500 kPa | 1005 ± 1
293.15 K, 5000 kPa | 1006 ± 1
293.15 K, 7600 kPa | 1008 ± 1
293.15 K, 10100 kPa | 1009 ± 1
293.15 K, 15000 kPa | 1012 ± 1
293.15 K, 20100 kPa | 1015 ± 1
293.15 K, 25100 kPa | 1017 ± 1
293.15 K, 30100 kPa | 1020 ± 1
293.15 K, 35000 kPa | 1023 ± 1
298.15 K, 101.33 kPa | 999.361 ± 4
303.15 K, 200 kPa | 995 ± 1
303.15 K, 500 kPa | 995 ± 1
303.15 K, 1100 kPa | 995 ± 1
303.15 K, 2500 kPa | 996 ± 1
303.15 K, 5100 kPa | 998 ± 1
303.15 K, 7600 kPa | 999 ± 1
303.15 K, 10000 kPa | 1000 ± 1
303.15 K, 15100 kPa | 1004 ± 1
303.15 K, 20100 kPa | 1006 ± 1
303.15 K, 25100 kPa | 1009 ± 1
303.15 K, 30000 kPa | 1012 ± 1
303.15 K, 35000 kPa | 1014 ± 1
313.15 K, 200 kPa | 986 ± 1
313.15 K, 500 kPa | 986 ± 1
313.15 K, 1100 kPa | 987 ± 1
313.15 K, 2600 kPa | 987 ± 1
313.15 K, 5100 kPa | 989 ± 1
313.15 K, 7500 kPa | 990 ± 1
313.15 K, 10100 kPa | 992 ± 1
313.15 K, 15000 kPa | 995 ± 1
313.15 K, 20000 kPa | 998 ± 1
313.15 K, 25100 kPa | 1001 ± 1
313.15 K, 30000 kPa | 1004 ± 1
313.15 K, 35000 kPa | 1006 ± 1
323.15 K, 100 kPa | 977 ± 1
323.15 K, 500 kPa | 977 ± 1
323.15 K, 1000 kPa | 978 ± 1
323.15 K, 2500 kPa | 979 ± 1
323.15 K, 5000 kPa | 980 ± 1
323.15 K, 7500 kPa | 982 ± 1
323.15 K, 10000 kPa | 984 ± 1
323.15 K, 15100 kPa | 987 ± 1
323.15 K, 20100 kPa | 990 ± 1
323.15 K, 25000 kPa | 993 ± 1
323.15 K, 30100 kPa | 996 ± 1
323.15 K, 35100 kPa | 999 ± 1
333.15 K, 100 kPa | 969 ± 1
333.15 K, 500 kPa | 969 ± 1
333.15 K, 1000 kPa | 969 ± 1
333.15 K, 2500 kPa | 970 ± 1
333.15 K, 5000 kPa | 972 ± 1
333.15 K, 7500 kPa | 974 ± 1
333.15 K, 10000 kPa | 975 ± 1
333.15 K, 15000 kPa | 979 ± 1
333.15 K, 20100 kPa | 982 ± 1
333.15 K, 25000 kPa | 985 ± 1
333.15 K, 30000 kPa | 988 ± 1
333.15 K, 35000 kPa | 990 ± 1
343.15 K, 100 kPa | 960 ± 1
343.15 K, 500 kPa | 960 ± 1
343.15 K, 1000 kPa | 960 ± 1
343.15 K, 2500 kPa | 962 ± 1
343.15 K, 5100 kPa | 963 ± 1
343.15 K, 7500 kPa | 965 ± 1
343.15 K, 10100 kPa | 967 ± 1
343.15 K, 15100 kPa | 970 ± 1
343.15 K, 20000 kPa | 973 ± 1
343.15 K, 25100 kPa | 977 ± 1
343.15 K, 30100 kPa | 980 ± 1
343.15 K, 35100 kPa | 983 ± 1
353.15 K, 100 kPa | 950 ± 1
353.15 K, 500 kPa | 950 ± 1
353.15 K, 1000 kPa | 952 ± 1
353.15 K, 2500 kPa | 953 ± 1
353.15 K, 5100 kPa | 955 ± 1
353.15 K, 7600 kPa | 957 ± 1
353.15 K, 10000 kPa | 958 ± 1
353.15 K, 15100 kPa | 962 ± 1
353.15 K, 20100 kPa | 965 ± 1
353.15 K, 25000 kPa | 969 ± 1
353.15 K, 30100 kPa | 972 ± 1
353.15 K, 35100 kPa | 975 ± 1
363.15 K, 100 kPa | 942 ± 1
363.15 K, 500 kPa | 943 ± 1
363.15 K, 1000 kPa | 943 ± 1
363.15 K, 2500 kPa | 944 ± 1
363.15 K, 5100 kPa | 946 ± 1
363.15 K, 7600 kPa | 948 ± 1
363.15 K, 10100 kPa | 950 ± 1
363.15 K, 15100 kPa | 954 ± 1
363.15 K, 20100 kPa | 957 ± 1
363.15 K, 25000 kPa | 960 ± 1
363.15 K, 30100 kPa | 964 ± 1
363.15 K, 35000 kPa | 967 ± 1
373.15 K, 100 kPa | 934 ± 1
373.15 K, 500 kPa | 934 ± 1
373.15 K, 1000 kPa | 934 ± 1
373.15 K, 2500 kPa | 936 ± 1
373.15 K, 5100 kPa | 938 ± 1
373.15 K, 7600 kPa | 940 ± 1
373.15 K, 10000 kPa | 941 ± 1
373.15 K, 15100 kPa | 945 ± 1
373.15 K, 20100 kPa | 949 ± 1
373.15 K, 25000 kPa | 952 ± 1
373.15 K, 30100 kPa | 956 ± 1
373.15 K, 35000 kPa | 959 ± 1
398.15 K, 100 kPa | 911 ± 1
398.15 K, 500 kPa | 912 ± 1
398.15 K, 1100 kPa | 912 ± 1
398.15 K, 2500 kPa | 913 ± 1
398.15 K, 5000 kPa | 916 ± 1
398.15 K, 7600 kPa | 918 ± 1
398.15 K, 10000 kPa | 920 ± 1
398.15 K, 15000 kPa | 924 ± 1
398.15 K, 20100 kPa | 928 ± 1
398.15 K, 25000 kPa | 932 ± 1
398.15 K, 30000 kPa | 936 ± 1
398.15 K, 35100 kPa | 940 ± 1
423.15 K, 100 kPa | 888 ± 1
423.15 K, 500 kPa | 889 ± 1
423.15 K, 1000 kPa | 889 ± 1
423.15 K, 2600 kPa | 890 ± 1
423.15 K, 5100 kPa | 893 ± 1
423.15 K, 7500 kPa | 896 ± 1
423.15 K, 10000 kPa | 898 ± 1
423.15 K, 15200 kPa | 903 ± 1
423.15 K, 20100 kPa | 907 ± 1
423.15 K, 25100 kPa | 911 ± 1
423.15 K, 30100 kPa | 916 ± 1
423.15 K, 35100 kPa | 920 ± 1

— the NIST ThermoML archive (doi:10.1016/j.fluid.2016.08.014)
